# Measured values as given in patent US9676691B2, “Method for producing indanone derivatives” (SYMRISE AG, priority 2011, dated 2017).
# What was measured:
# [1] = Examination of the crystallisation in emulsion; format: physicochemical; details: with respect to the entire mass of the cosmetic formulation (0.025% by weight)
# Text: According to the indications in the following Table 1, two cosmetic formulations were produced as emulsions [E(I) and E (II)]. The product from example 1a contained pure 2-benzylidene-3,3-dimethyl-5,6-dimethoxy-1-indanone and was used in the emulsion E(I). For the emulsion E(II), 2-benzylidene-3,3-dimethyl-5,6-dimethoxy-1-indanone from example 1a was used, but it was contaminated with benzyl-3,3-dimethyl-5,6-dimethoxy-1-indanone in such a manner that a 5% by weight contamination was present, with respect to the total mass of the contaminated product.
# The emulsions were covered and left to stand at ambient temperature for 3 days. Subsequently, the emulsions were examined under a microscope. Emulsion E(I) had no crystals. In emulsion E(II), crystal seeds having a size of from 4 to 7 μm were able to be observed.
# [2] = Solubility in cosmetic oils; format: physicochemical; details: in contrast to the target product
smiles,measurement,setting,value
"COc1cc2c(cc1OC)C(C)(C)C(Cc1ccccc1)C2=O (centres unmarked) [2-benzyl-3,3-dimethyl-5,6-dimethoxy-1-indanone]",proportion of by-product that initiates the formation of crystallisation seeds in the cosmetic formulation,[1],250 ppm
same,solubility in cosmetic oils,[2],cannot be readily dissolved in cosmetic oils
